Values of other authors in patent US6867034B2, “Methods of screening novel agents for use in cancer therapy and prevention” (The Curators of The University of Missouri, priority 2000, dated 2005).

Key:
Dictyostelium cells = details: 300 μM cisplatin
repB = details: after cisplatin treatment, versus basal levels
repD = details: after cisplatin treatment, versus basal levels

N.N.[Cl][Pt][Cl] [cisplatin]
viability of the cells (Dictyostelium cells): reduced by three orders of magnitude | levels of repB mRNA (repB): rapidly increase from basal levels | levels of repD mRNA (repD): rapidly increase from basal levels
